Here are results for 15 compounds from patent publication US9963448B2, “Bicyclic inhibitors of PAD4” (Padlock Therapeutics, Inc., priority 2015, dated 2018).

Where two headings read alike, the source gives them in different places.

Test [1] concerns the target hPAD4 (Homo sapiens, UniProt Q9UM07). In words: hPAD4 RFMS (RapidFire mass spectrometry) PAD4 inhibition assay.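 For hPAD4 RFMS pIC50: grade E means pIC50 at most 4 and F means pIC50 4.0 to 5.0.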 The class given is biochemical. Conditions: hPAD4 enzyme, RFMS readout. Here is the method: (§1) Compounds of the present invention were assayed as inhibitors of PAD4 using the assay protocol described below.
(§2) Compound stock solutions were stored at RT. […] Final assay conditions were as follows:
(§3) Total incubation time: 65 mins at 37° C.
(§4) Stop solution: 40 μl 5% TCA in ACN
(§5) The compound numbers correspond to the compound numbers in Table 1. […] The term pIC50=−log(IC50). […] “NA” stands for “not assayed.”

Test [2] concerns the target mPAD4 (Mus musculus, UniProt Q9Z183). In words: mPAD4 RFMS PAD4 inhibition assay.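 For mPAD4 RFMS pIC50: grade E means pIC50 at most 4 and F means pIC50 4.0 to 5.0.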 The class given is biochemical. To be noted: mPAD4, RFMS readout. Here is the method: as §1, §2, §3, §4, §5
Setting [3] is: pIC50=−log(IC50), read-out: hPAD4 RFMS pIC50 (converted).
The mark [4] stands for this setting: pIC50=−log(IC50), read-out: mPAD4 RFMS pIC50 (converted).

Sequence of hPAD4 (Q9UM07 whole entry): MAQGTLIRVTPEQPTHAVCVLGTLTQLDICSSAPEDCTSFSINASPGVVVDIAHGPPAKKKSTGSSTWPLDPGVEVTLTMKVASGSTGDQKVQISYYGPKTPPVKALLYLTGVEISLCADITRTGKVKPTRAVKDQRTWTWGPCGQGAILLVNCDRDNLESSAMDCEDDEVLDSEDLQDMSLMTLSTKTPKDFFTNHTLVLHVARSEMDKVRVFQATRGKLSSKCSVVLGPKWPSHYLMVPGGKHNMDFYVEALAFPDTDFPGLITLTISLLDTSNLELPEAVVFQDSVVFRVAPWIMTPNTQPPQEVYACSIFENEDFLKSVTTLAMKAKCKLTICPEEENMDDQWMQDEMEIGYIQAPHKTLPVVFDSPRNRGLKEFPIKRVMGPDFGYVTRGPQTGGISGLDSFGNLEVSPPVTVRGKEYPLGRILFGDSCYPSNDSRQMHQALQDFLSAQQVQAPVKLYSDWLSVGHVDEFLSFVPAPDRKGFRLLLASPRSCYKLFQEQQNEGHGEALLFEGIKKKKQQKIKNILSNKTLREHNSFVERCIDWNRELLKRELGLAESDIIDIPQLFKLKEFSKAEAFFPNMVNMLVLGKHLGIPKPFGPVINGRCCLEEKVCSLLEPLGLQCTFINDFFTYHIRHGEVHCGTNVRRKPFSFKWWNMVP
Sequence of mPAD4 (Q9Z183 whole entry): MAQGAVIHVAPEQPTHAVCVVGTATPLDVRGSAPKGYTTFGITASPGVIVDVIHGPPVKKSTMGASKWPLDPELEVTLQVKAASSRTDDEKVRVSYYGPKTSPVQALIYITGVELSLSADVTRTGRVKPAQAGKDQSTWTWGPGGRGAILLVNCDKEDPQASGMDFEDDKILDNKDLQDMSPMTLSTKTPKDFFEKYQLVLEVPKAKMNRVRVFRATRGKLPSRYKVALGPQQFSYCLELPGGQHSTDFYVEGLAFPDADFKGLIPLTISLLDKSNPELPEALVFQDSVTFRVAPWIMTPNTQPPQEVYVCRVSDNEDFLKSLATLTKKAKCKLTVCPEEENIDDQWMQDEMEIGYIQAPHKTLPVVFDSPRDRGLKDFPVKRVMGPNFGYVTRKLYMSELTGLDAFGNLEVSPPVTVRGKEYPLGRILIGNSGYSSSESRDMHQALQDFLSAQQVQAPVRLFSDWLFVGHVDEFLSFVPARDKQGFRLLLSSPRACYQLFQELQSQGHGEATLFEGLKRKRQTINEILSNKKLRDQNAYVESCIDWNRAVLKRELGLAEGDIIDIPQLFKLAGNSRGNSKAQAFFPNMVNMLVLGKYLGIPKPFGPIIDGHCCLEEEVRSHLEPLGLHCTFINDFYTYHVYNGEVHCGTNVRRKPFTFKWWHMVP

As for `COc1cc(C(=O)N2CC3(CCOC[C@@H]3N)C2)cc2nc(-c3cc4cccnc4n3CC3CC3)n(C)c12` [Compound I-95], the IC50 in test [1] (setting [3]) is 10 to 100 µM; in test [1] (read-out: hPAD4 RFMS IC50), above 10 µM; in test [2] (setting [4]) it was 10 to 100 µM; in test [2] (read-out: mPAD4 RFMS IC50), above 10 µM.
On to `COc1cc(C(=O)N2CCC[C@@H](N)C2)cc2nc(-c3cc4cnc(C)nc4n3CC3CC3)n(C)c12` [Compound I-203], for which the IC50 in test [1] (setting [3]) is below 1 µM; in test [1] (read-out: hPAD4 RFMS IC50), below 1 µM; in test [2] (setting [4]) it was 1 to 10 µM; in test [2] (read-out: mPAD4 RFMS IC50), 1 to 5 µM.
As to `COc1cc(C(=O)N2CCC3(CNCCC3(F)F)C2)cc2nc(-c3cc4cccnc4n3CC3CC3)n(C)c12` (racemic) [Compound I-97], the IC50 was 10 to 100 µM in test [1] (setting [3]), above 10 µM in test [1] (read-out: hPAD4 RFMS IC50), 10 to 100 µM in test [2] (setting [4]) and above 10 µM in test [2] (read-out: mPAD4 RFMS IC50).
`COCCn1c(-c2nc3cc(C(=O)N4CCC[C@@H](N)C4)cc(OC)c3n2C)cc2cccnc21` [Compound I-137]: the IC50 in test [1] (setting [3]) was 1 to 10 µM; in test [1] (read-out: hPAD4 RFMS IC50), 1 to 5 µM; in test [2] (setting [4]), 1 to 10 µM; in test [2] (read-out: mPAD4 RFMS IC50), 1 to 5 µM.
With `COc1cc(C(=O)N2CCC(F)C(N)C2)cc2nc(-c3cc4cccnc4n3CC3CC3)n(C)c12` (stereo not drawn) [Compound I-56], the IC50 is 1 to 10 µM in test [1] (setting [3]), 1 to 5 µM in test [1] (read-out: hPAD4 RFMS IC50), 1 to 10 µM in test [2] (setting [4]) and 1 to 5 µM in test [2] (read-out: mPAD4 RFMS IC50).
As to `COc1cc(C(=O)N2CC3(CCCNC3)C2)cc2nc(-c3cc4cccnc4n3CC3CC3)n(C)c12` [Compound I-27], the IC50 in test [1] (setting [3]) is 1 to 10 µM; in test [1] (read-out: hPAD4 RFMS IC50), 1 to 5 µM; in test [2] (setting [4]) it was 1 to 10 µM; in test [2] (read-out: mPAD4 RFMS IC50), 1 to 5 µM.
Regarding `COCCn1c(-c2nc3cc(C(=O)N4C[C@H](N)CC[C@@H]4C)cc(OC)c3n2C)cc2cccnc21` [Compound I-195], the IC50 was 1 to 10 µM in test [1] (setting [3]), 5 to 10 µM in test [1] (read-out: hPAD4 RFMS IC50), 1 to 10 µM in test [2] (setting [4]) and 1 to 5 µM in test [2] (read-out: mPAD4 RFMS IC50).
In the case of `CCn1c(-c2cc3cccnc3n2CC2CC2)nc2cc(C(=O)N3CC[C@H]4CCN[C@H]4C3)cc(OC)c21` [Compound I-22], the IC50 in test [1] (setting [3]) is 10 to 100 µM; in test [1] (read-out: hPAD4 RFMS IC50), above 10 µM; in test [2] (setting [4]), 10 to 100 µM; in test [2] (read-out: mPAD4 RFMS IC50), above 10 µM.
With `COc1cc(C(=O)N2CC3(CNCCO3)C2)cc2nc(-c3cc4cccnc4n3CC3CC3)n(C)c12` [Compound I-32], the IC50 in test [1] (setting [3]) was above 100 µM; in test [1] (read-out: hPAD4 RFMS IC50), above 10 µM; in test [2] (setting [4]), 10 to 100 µM; in test [2] (read-out: mPAD4 RFMS IC50), above 10 µM.
In the case of `Cn1c(-c2cc3cccnc3n2CC2CC2)nc2cc(C(=O)N3CCC[C@@H](N)C3)cc(CO)c21` [Compound I-128, {5-[(3R)-3-aminopiperidine-1-carbonyl]-2-[1-(cyclopropylmethyl)-1H-pyrrolo[2,3-b]pyridin-2-yl]-1-methyl-1H-1,3-benzodiazol-7-yl}methanol], the IC50 in test [1] (setting [3]) is 1 to 10 µM; in test [1] (read-out: hPAD4 RFMS IC50), 1 to 5 µM; in test [2] (setting [4]), 1 to 10 µM; in test [2] (read-out: mPAD4 RFMS IC50) it was 1 to 5 µM.
Regarding `COc1cc(C(=O)N2CCC[C@@H](N)C2)cc2nc(-c3cc4cccnc4n3[C@@H](C)C3CC3)n(C)c12` [Compound I-102, (3R)-1-(2-{1-[(1S)-1-cyclopropylethyl]-1H-pyrrolo[2,3-b]pyridin-2-yl}-7-methoxy-1-methyl-1H-1,3-benzodiazole-5-carbonyl)piperidin-3-amine], the IC50 is 1 to 10 µM in test [1] (setting [3]), below 1 µM in test [1] (read-out: hPAD4 RFMS IC50), 1 to 10 µM in test [2] (setting [4]) and 1 to 5 µM in test [2] (read-out: mPAD4 RFMS IC50).
With `COc1cc(C(=O)N2CC[C@H]3CCN[C@H]3C2)cc2nc(-c3cc4cncnc4n3CC3CC3)n(C)c12` [Compound I-12, 5-[(3aR,7aR)-octahydro-1H-pyrrolo[2,3-c]pyridine-6-carbonyl]-2-[7-(cyclopropylmethyl)-7H-pyrrolo[2,3-d]pyrimidin-6-yl]-7-methoxy-1-methyl-1H-1,3-benzodiazole], the IC50 in test [1] (setting [3]) was 1 to 10 µM; in test [1] (read-out: hPAD4 RFMS IC50), 1 to 5 µM; in test [2] (setting [4]), 10 to 100 µM; in test [2] (read-out: mPAD4 RFMS IC50), above 10 µM.
As for `COc1ccc2cc(-c3nc4cc(C(=O)N5CC[C@H](OC)[C@H](N)C5)ccc4n3C)n(CC3CC3)c2n1` [Compound I-130], the IC50 in test [1] (setting [3]) was below 1 µM; in test [1] (read-out: hPAD4 RFMS IC50) it was below 1 µM; in test [2] (setting [4]), 1 to 10 µM; in test [2] (read-out: mPAD4 RFMS IC50), 1 to 5 µM.
For the compound `CCn1c(-c2cc3cccnc3n2CC2CC2)nc2cc(C(=O)N3C[C@@H](N)C[C@H](F)C3)cc(OC)c21` [Compound I-71], the IC50 in test [1] (setting [3]) is 1 to 10 µM; in test [1] (read-out: hPAD4 RFMS IC50), 1 to 5 µM; in test [2] (setting [4]), below 1 µM; in test [2] (read-out: mPAD4 RFMS IC50) it was below 1 µM.
For the compound `COc1cc(C(=O)N2CC[C@@H]3OCCN[C@@H]3C2)cc2nc(-c3cc4cccnc4n3CC3CC3)n(C)c12` [Compound I-29], the IC50 in test [1] (setting [3]) was 10 to 100 µM; in test [1] (read-out: hPAD4 RFMS IC50), 5 to 10 µM; in test [2] (setting [4]), 1 to 10 µM; in test [2] (read-out: mPAD4 RFMS IC50) it was 5 to 10 µM.
